Data on 1 compound can be found in US20090074824A1, “STABLE NANOCAPSULE SYSTEMS FOR THE ADMINISTRATION OF ACTIVE MOLECULES” (priority 2006, published 2009).

The term solubility denotes how much of the substance goes into solution per volume. Low readings indicate little dissolved substance, high ones much dissolved substance.

The structures appear in SMILES notation. ≈ marks a conversion by molar mass, not a printed value.

This data set can be described thus: physchem.

For `CCCCC(=O)O[C@]1(C(=O)CO)[C@@H](C)C[C@H]2[C@@H]3CCC4=CC(=O)C=C[C@]4(C)[C@@]3(F)[C@@H](O)C[C@@]21C` [betamethasone valerate, Betamethasone valerate], the solubility was 5 µg/mL (≈ 10.5 µM).
